In the supplement of paper PMC7695840:
“And” between values parts separate entries of the source, which are not always exact repeats. Equal entries are not always repeated. Structures can show the parent of a compound that is named as a salt.

Columns and labels:
[1] = system: Staphylococcus aureus MW2 delta-mecA (mecA-); experiment: IC50 (growth, competition assay); conditions: cefoxitin: subinhibitory
Outline: (§1)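 Signals from DsRed (540/590) and GFP (485/520) were scaled on every plate between single-strain control medians, with No Treatment then set to 0.5. The cells were a 1:1 mix of pre-induced fluorescent S. aureus MW2 strains with and without the resistance gene, grown unshaken for 20 h at 37 °C and 90% humidity in LB in 1536-well plates under a subinhibitory drug dose set each day. Each strain's IC50 was defined as the dose halving the No Treatment signal, or the maximal signal.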

[2] = system: Staphylococcus aureus MW2 (mecA+); experiment: IC50 (growth, competition assay); conditions: cefoxitin: subinhibitory
Outline: as §1

Row | SMILES | IC50 ([1]; fluorescent label: DsRed) | IC50 ([1]; fluorescent label: GFP) | IC50 ([2]; fluorescent label: DsRed) | IC50 ([2]; fluorescent label: GFP)
1 | O=C(Nc1ccc([N+](=O)[O-])cc1Cl)c1cc(Cl)ccc1O [NICLOSIDE] | < 9.85 µM | < 9.85 µM | < 9.85 µM | < 9.85 µM
2 | O=C(O)CCCCC(CCSCc1ccccc1)SCc1ccccc1 (centres undefined) [CPI-613] | < 9.85 µM | < 9.85 µM | 15.5 µM | 15 µM
3 | O=[N+]([O-])c1ccc2c(c1)S(=O)(=O)C=C2 [Stattic] | 25.7 µM and 16.6 µM | 13.6 µM and < 9.85 µM | 35.8 µM and 35.3 µM | 35.4 µM and 56.2 µM
4 | CCN(CC)CCN(Cc1ccc(-c2ccc(C(F)(F)F)cc2)cc1)C(=O)Cn1c(SCc2ccc(F)cc2)nc(=O)c2c1CCC2 | < 9.85 µM | < 9.85 µM | < 9.85 µM | 10.2 µM
5 | O=C(OC[C@H]1O[C@@H](OC(=O)c2cc(O)c(O)c(OC(=O)c3cc(O)c(O)c(O)c3)c2)[C@H](OC(=O)c2cc(O)c(O)c(OC(=O)c3cc(O)c(O)c(O)c3)c2)[C@@H](OC(=O)c2cc(O)c(O)c(OC(=O)c3cc(O)c(O)c(O)c3)c2)[C@@H]1OC(=O)c1cc(O)c(O)c(OC(=O)c2cc(O)c(O)c(O)c2)c1)c1cc(O)c(O)c(OC(=O)c2cc(O)c(O)c(O)c2)c1 [TANNIC ACID] | 44 µM | 55.3 µM | 57 µM | 57.2 µM
6 | C[C@H]1[C@H](C)CC[C@]2(C(=O)O)CC[C@]3(C)C(=CC[C@@H]4[C@@]5(C)C[C@@H](O)[C@H](O)[C@@](C)(CO)[C@@H]5[C@H](O)C[C@]43C)[C@H]12 [MADECASSIC ACID] | 47.8 µM | 30 µM | 53.8 µM | 54.5 µM
7 | O=c1[nH]nc(Sc2ncc([N+](=O)[O-])s2)n1-c1ccc2c(c1)OCCO2 [BI 78D3] | < 9.85 µM | < 9.85 µM | < 9.85 µM | 11.9 µM
8 | CC[C@H]1OC(=O)C[C@@H](O)[C@H](C)[C@@H](O[C@@H]2O[C@H](C)[C@@H](O[C@H]3C[C@@](C)(O)[C@@H](O)[C@H](C)O3)[C@H](N(C)C)[C@H]2O)[C@@H](CC=O)C[C@@H](C)C(=O)/C=C/C(C)=C/[C@@H]1CO[C@@H]1O[C@H](C)[C@@H](O)[C@@H](OC)[C@H]1OC [Tylosin tartrate] | < 9.85 µM | < 9.85 µM | < 9.85 µM | < 9.85 µM
9 | O=C(Nc1ncc(SCCN2CCCC2)s1)[C@]1(c2ccc(S(=O)(=O)C3CC3)cc2)C[C@H]1C1CCCCC1 | 74.5 µM | 34.4 µM | 111 µM | > 150 µM
10 | O=C(O)c1ccc(Nc2ncc3c(n2)-c2ccc(Cl)cc2C(c2c(F)cccc2F)=NC3)cc1 [MLN8054] | 3.89 µM | 2.45 µM | 13.7 µM | 24.9 µM
11 | CCn1cc(C(=O)O)c(=O)c2cc(F)c(N3CCN(C)CC3)cc21 [PEFLOXACINE MESYLATE] | < 9.85 µM | < 9.85 µM | < 9.85 µM | < 9.85 µM
12 | C[CH2][Hg][S]c1ccccc1C(=O)[O-].[Na+] [MERTHIOLATE] | < 9.85 µM | < 9.85 µM | < 9.85 µM | < 9.85 µM
13 | COc1ccc2c(c[n+](C)c3c4cc5c(cc4ccc23)OCO5)c1OC [Chelerythrine chloride] | 15 µM | < 9.85 µM | 36.7 µM | 49.2 µM
14 | C=C[C@](C)(O)CC[C@@H]1[C@@]2(C)CCCC(C)(C)[C@@H]2CC[C@@]1(C)O [Sclareol] | 25 µM | 19.7 µM | 99.3 µM | 65.2 µM
15 | C[C@H]1COc2c(C3(N)CC3)c(F)cc3c(=O)c(C(=O)O)cn1c23 [PAZUCROSS] | < 9.85 µM | < 9.85 µM | < 9.85 µM | < 9.85 µM
16 | C[C@H]1COc2c(N3CCN(C)CC3)c(F)cc3c(=O)c(C(=O)O)cn1c23 [Levofloxacin (Levaquin)] | < 0.498 µM | < 0.498 µM | < 0.498 µM | < 0.498 µM
17 | CC(C)(c1ccc(O)cc1)c1ccc(O)cc1 [BISPHENOL A] | < 9.85 µM | < 9.85 µM | 42.4 µM | 64.7 µM
18 | CC1CCc2c(N3CCC(O)CC3)c(F)cc3c(=O)c(C(=O)O)cn1c23 (centres undefined) [ACUATIM] | < 9.85 µM | < 9.85 µM | < 9.85 µM | < 9.85 µM
19 | COC(=O)C1=C(C)NC(C)=C(C(=O)OCCCN2CCC(c3ccccc3)(c3ccccc3)CC2)[C@H]1c1cccc([N+](=O)[O-])c1 [S-(+)-Niguldipine hydrochloride] | < 9.85 µM | < 9.85 µM | < 9.85 µM | 11.4 µM
20 | CSc1ccc2c(c1)N(CCC1CCCCN1C)c1ccccc1S2 (centres undefined) [MELLARIL] | 18.9 µM | 13.9 µM | 66.9 µM | 87.4 µM
21 | O=S1(=O)N(CCN2CC=C(c3c[nH]c4cc(F)ccc34)CC2)c2cccc3c2N1CCC3 [LY-367,265] | < 9.85 µM | 13.1 µM | 39 µM | 45 µM
22 | O=C(O[C@@H]1Cc2c(O)cc(O)cc2O[C@@H]1c1cc(O)c(O)c(O)c1)c1cc(O)c(O)c(O)c1 [EPIGALLOCATECHIN-3-MONOGALLATE] | < 9.85 µM | < 9.85 µM | 45.2 µM | 63.3 µM
23 | Cc1cc(Nc2cc(N3CCN(C)CC3)nc(/C=C/c3ccccc3)n2)n[nH]1 [ENMD-2076] | 6.48 µM | 4.72 µM | 47.6 µM | 55.2 µM
24 | CN(C)c1ccc(C(=C2C=CC(=[N+](C)C)C=C2)c2ccc(N(C)C)cc2)cc1 [Crystal violet] | < 0.498 µM | < 0.498 µM | 0.691 µM | 0.758 µM
25 | COc1cc(/C=C/C(=O)CC(=O)/C=C/c2ccc(O)c(OC)c2)ccc1O [CURCUMIN] | < 9.85 µM | < 9.85 µM | 26.8 µM | 50.1 µM
26 | CSc1ccc2c(c1)N(CCC1CCCCN1C)c1ccccc1S2 (centres undefined) [Thioridazine hydrochloride] | < 9.85 µM | 14.8 µM | 57.7 µM | 50.3 µM
